One test has as its target hβ2 adrenergic receptor (Homo sapiens (Human), UniProt P07550). The experiment in a line: Assay for determining adrenergic receptor agonist potency (cAMP Flashplate, HEK-293 cells). It is filed as cell-based. The note with it: data rounded to nearest 1 nM. On the procedure: The cell monolayer was lifted with 2 mM EDTA in PBS. Cells were pelleted by centrifugation at 1,000 rpm, and cell pellets were either stored frozen at −80° C. or membranes were prepared immediately for use. cAMP assays were performed in a radioimmunoassay format using the Flashplate Adenylyl Cyclase Activation Assay System with [^125I]-cAMP (NEN SMP004, PerkinElmer Life Sciences Inc., Boston, Mass.), according to the manufacturers instructions. […] Cells were rinsed with PBS and detached in dPBS (Dulbecco's Phosphate Buffered Saline, without CaCl2 and MgCl2) containing 2 mM EDTA or Trypsin-EDTA solution (0.05% trypsin/0.53 mM EDTA). After counting cells in Coulter cell counter, cells were pelleted by centrifugation at 1,000 rpm and re-suspended in stimulation buffer containing TBMX (PerkinElmer Kit) pre-warmed to room temperature to a concentration of 1.6×10^6 to 2.8×10^6 cells/mL. About 40,000 to 80,000 cells per well were used in this assay. […] Reactions were incubated for 10 min at 37° C. and stopped by adding 100 μL of cold detection buffer containing [^125I]-cAMP (NEN SMP004, PerkinElmer Life Sciences, Boston, Mass.). […] Data were analyzed by nonlinear regression analysis with the GraphPad Prism Software package (GraphPad Software, Inc., San Diego, Calif.) with the sigmoidal equation. The Cheng-Prusoff equation (Cheng Y, and Prusoff W H., Biochemical Pharmacology, 1973, 22, 23, 3099-108) was used to calculate the EC50 values.

Test [1] concerns MCh-induced bronchoconstriction. In words: Einthoven assay: bronchoprotection against methacholine (MCh)-induced bronchoconstriction. Conditions: rat, 100 μg by inhalation, 24 h after administration; for inhibition in vivo at 0.1 mg: inhaled or nasal, read-out: Broncho. at 24 h. It is filed as in vivo, rat. On the procedure: This assay measures the ability of a test compound to provide bronchoprotection against methacholine (MCh)-induced bronchoconstriction in a rat. Male Sprague-Dawley rats (Harlan, Indianapolis, Ind.), weighing between 200 g and 350 g, were used for all studies. Test compound or vehicle (sterile deionized water) were dosed by inhalation (1H) over a 10 min period in a pie shaped inhalation chamber (R+S Molds, San Carlos, Calif.) using 5 mL of dosing solution. […] Rats were dosed with 100 μg of test compound unless otherwise indicated. At predetermined time points, rats were anesthetized with an intraperitoneal (IP) injection of 120 mg/kg inactin (thiobutabarbital). A supplemental dose (40 mg/kg, IP) was administered if the animal responded to physical stimuli (e.g. toe pinch). The surgical site was shaved and a 1-2 cm midline incision of the ventral aspect of the neck was made. The jugular vein was isolated and cannulated with a saline-filled polyethylene catheter (PE-50) to allow IV infusion of MCh. Trachea was dissected free and cannulated with a 14G needle (#NE-014, Small Parts, Miami Lakes, Fla.). After placement of the tracheal cannula, each rat was ventilated using a respirator (Model 683, Harvard Apparatus, Inc., MA) set at a stroke volume of 1 mL/100 g body weight (but not exceeding 2.5 mL volume) and a rate of 90 strokes per minute. A T-connector was placed along the respirator expiratory tubing to allow for measurement of changes in ventilation pressure (VP) using a Biopac transducer that was connected to a Biopac […]) pre-amplifier. Body temperature was maintained at 37° C. using a heating pad. Changes in VP were recorded using the Acknowledge Data Collection Software (Santa Barbara, Calif.). Baseline values were collected for at least 2.5 min. Rats were then challenged with non-cumulative intravenous (IV) infusions of 40 and 80 μg/kg MCh. MCh was infused intravenously for 2.5 minutes from a syringe pump (sp210iw, World Precision Instruments, Inc., Sarasota, Fla.) at a rate of 2 mL/kg/min, with a 2 minute interval between the two doses of MCh. Changes in ventilation pressure (cm H2O) in treated animals are expressed as % inhibition of MCh response relative to control animals. Other bronchoconstrictors, such as histamine and acetylcholine, can be used in place of MCh in this assay. Additionally, guinea pigs can be used instead of rats. […] Inhibition greater than or equal to 30 percent at 24 h is indicative of a long duration of action.

In the next test the target is hM3 muscarinic receptor (Homo sapiens (Human), UniProt P20309). In words: Radioligand binding assay for muscarinic receptors ([3H]-NMS displacement, CHO cell membranes). On the procedure: The cells were grown in a 5% CO2, 37° C. incubator and lifted with 2 mM EDTA in dPBS. Cells were collected by 5 minute centrifugation at 650×g, and cell pellets were either stored frozen at −80° C. or membranes were prepared immediately for use. For membrane preparation, cell pellets were resuspended in lysis buffer and homogenized with a Polytron PT-2100 tissue disrupter (Kinematica AG; 20 seconds×2 bursts). Crude membranes were centrifuged at 40,000×g for 15 minutes at 4° C. The membrane pellet was then resuspended with re-suspension buffer and homogenized again with the Polytron tissue disrupter. The protein concentration of the membrane suspension was determined by the method described in Lowry et al., 1951, […], 193, 265. All membranes were stored frozen in aliquots at −80° C. or used immediately. […] The membranes were briefly homogenized using a Polytron tissue disruptor (10 seconds) prior to assay plate addition. […] The test compounds were initially dissolved to a concentration of 400 μM in dilution buffer and then serially diluted 5× with dilution buffer to final concentrations ranging from 10 μM to […]. The order of addition and volumes added to the assay plates were as follows: 25 μL radioligand, 25 μL diluted test compound, and 50 μL membranes. Assay plates were incubated for 6 hours at 37° C. […] Filter plates were rinsed three times with wash buffer (10 mM HEPES) to remove unbound radioactivity. The plates were then air-dried and 50 μL Microscint-20 liquid scintillation fluid (PerkinElmer, Inc.) were added to each well. The plates were then counted in a PerkinElmer Topcount liquid scintillation counter (PerkinElmer, Inc.). Binding data were analyzed by nonlinear regression analysis with the GraphPad Prism Software package (GraphPad Software, Inc., San Diego, Calif.) using the one-site competition model. […] These summary statistics were then converted back to K; values for data reporting.

The mark [2] stands for this setting: hM3 Muscarinic Receptor Binding, data rounded to nearest 0.1 nM.

SMILES strings stand for the structures. Read-outs that look alike come from different tables or passages of the source.

Sequence of hβ2 adrenergic receptor (P07550 whole entry): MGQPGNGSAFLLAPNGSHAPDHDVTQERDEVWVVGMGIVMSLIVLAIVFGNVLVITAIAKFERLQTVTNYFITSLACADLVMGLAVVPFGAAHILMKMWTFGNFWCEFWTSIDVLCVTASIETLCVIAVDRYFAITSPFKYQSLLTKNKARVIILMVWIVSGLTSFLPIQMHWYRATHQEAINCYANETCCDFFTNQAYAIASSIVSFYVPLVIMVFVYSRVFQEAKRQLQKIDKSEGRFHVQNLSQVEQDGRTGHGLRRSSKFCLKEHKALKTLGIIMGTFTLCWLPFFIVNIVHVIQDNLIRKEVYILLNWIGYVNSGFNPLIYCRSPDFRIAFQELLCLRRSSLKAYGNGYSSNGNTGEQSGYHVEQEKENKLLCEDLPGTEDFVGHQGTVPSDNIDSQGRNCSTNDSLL
Sequence of hM3 muscarinic receptor (P20309 whole entry): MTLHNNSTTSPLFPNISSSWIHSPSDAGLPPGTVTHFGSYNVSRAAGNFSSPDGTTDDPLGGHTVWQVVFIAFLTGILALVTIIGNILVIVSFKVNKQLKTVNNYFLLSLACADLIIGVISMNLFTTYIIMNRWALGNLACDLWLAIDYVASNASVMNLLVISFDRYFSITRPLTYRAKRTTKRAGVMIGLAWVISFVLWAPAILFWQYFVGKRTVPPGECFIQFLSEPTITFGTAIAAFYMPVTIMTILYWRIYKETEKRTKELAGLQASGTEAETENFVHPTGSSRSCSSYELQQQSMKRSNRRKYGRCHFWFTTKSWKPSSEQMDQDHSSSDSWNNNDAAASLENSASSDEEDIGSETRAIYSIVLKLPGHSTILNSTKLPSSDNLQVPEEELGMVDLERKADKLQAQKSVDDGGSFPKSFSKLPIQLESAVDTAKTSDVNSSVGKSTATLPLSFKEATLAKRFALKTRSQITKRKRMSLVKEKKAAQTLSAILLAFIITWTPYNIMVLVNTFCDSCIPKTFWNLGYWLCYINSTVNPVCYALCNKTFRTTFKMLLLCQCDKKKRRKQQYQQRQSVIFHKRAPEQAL

Compound `CN(C(=O)CCN1CCC(OC(=O)Nc2ccccc2-c2ccccc2)CC1)c1ccc(CC(=O)NCc2cccc(CCNC[C@H](O)c3ccc(O)c4[nH]c(=O)ccc34)c2)cc1` [Compound I-65] yielded an EC50 on hβ2 adrenergic receptor of 1000 pM. Also, in test [1], the inhibition in vivo at 0.1 mg was more than 30%. The affinity at hM3 muscarinic receptor corresponds to a Ki of 100 pM.
Taken in the same sequence, the figures for `C[C@@H](Cc1ccc(CNC(=O)c2cccc(N(C)C(=O)CCN3CCC(OC(=O)Nc4ccccc4-c4ccccc4)CC3)c2)cc1)NC[C@H](O)c1ccc(O)c2[nH]c(=O)ccc12` [Compound I-49] were 1000 pM, more than 30% and 100 pM.
On hβ2 adrenergic receptor, `Cc1ccc(C(=O)Nc2cccc(CCNC[C@H](O)c3ccc(O)c4[nH]c(=O)ccc34)c2)cc1N(C)C(=O)CCN1CCC(OC(=O)Nc2ccccc2-c2ccccc2)CC1` [Compound I-33] gave an EC50 of 1000 pM. The “Broncho. at 24 h” value in test [1] is reported as “No”. This compound displayed a Ki on hM3 muscarinic receptor of 200 pM.
Turning to `COc1ccc(CC(=O)NCc2ccc(N(C)C(=O)CCN3CCC(OC(=O)Nc4ccccc4-c4ccccc4)CC3)cc2)cc1C[C@@H](C)NC[C@H](O)c1ccc(O)c2[nH]c(=O)ccc12` [Compound I-82], at hβ2 adrenergic receptor, a half-maximal response (EC50) required 1000 pM. For the same compound, the inhibition in vivo at 0.1 mg in test [1] was more than 30%. The compound also yielded a Ki on hM3 muscarinic receptor (setting [2]) of 100 pM.
Taken in the same sequence, the figures for `COc1cc(NC(=O)CCCN(C)C(=O)CCN2CCC(OC(=O)Nc3ccccc3-c3ccccc3)CC2)ccc1CNC[C@H](O)c1ccc(O)c2[nH]c(=O)ccc12` [Compound I-4] were 2000 pM, more than 30% and 100 pM.
Consider `C[C@H](Cc1cccc(CCNC(=O)c2ccc(N(C)C(=O)CCN3CCC(OC(=O)Nc4ccccc4-c4ccccc4)CC3)cc2)c1)NC[C@H](O)c1ccc(O)c2[nH]c(=O)ccc12` [Compound I-55], for which, at hβ2 adrenergic receptor, the EC50 was found to be 1000 pM. Further, the inhibition in vivo at 0.1 mg in test [1] is more than 30%. Also, the inhibition constant Ki at hM3 muscarinic receptor (setting [2]) came out at 200 pM.
The compound `CN(CCCCC(=O)Nc1ccc(CCNC[C@H](O)c2ccc(O)c3[nH]c(=O)ccc23)cc1)C(=O)CCN1CCC(OC(=O)Nc2ccccc2-c2ccccc2)CC1` [Compound I-21] displayed an EC50 on hβ2 adrenergic receptor of 1000 pM. Besides, the inhibition in vivo at 0.1 mg in test [1] is more than 30%. The Ki at hM3 muscarinic receptor was 100 pM.
The compound `CC(Cc1cccc(NC(=O)CCCN(C)C(=O)CCN2CCC(OC(=O)Nc3ccccc3-c3ccccc3)CC2)c1)NC[C@H](O)c1ccc(O)c2[nH]c(=O)ccc12` (stereo partly drawn) [Compound I-10] registered an EC50 on hβ2 adrenergic receptor of 1000 pM. The inhibition in vivo at 0.1 mg in test [1] was more than 30%. At hM3 muscarinic receptor, this compound had a Ki of 100 pM.
For `CC(Cc1cccc(NC(=O)c2cccc(N(C)C(=O)CCN3CCC(OC(=O)Nc4ccccc4-c4ccccc4)CC3)c2)c1)NC[C@H](O)c1ccc(O)c2[nH]c(=O)ccc12` (stereo partly drawn) [Compound I-36] the same measures were 1000 pM, more than 30% and 200 pM.
As for `C[C@@H](Cc1cccc(CC(=O)NCc2ccc(N(C)C(=O)CCN3CCC(OC(=O)Nc4ccccc4-c4ccccc4)CC3)cc2)c1)NC[C@H](O)c1ccc(O)c2[nH]c(=O)ccc12` [Compound I-79], at hβ2 adrenergic receptor, the EC50 came to 1000 pM. Moreover, the “Broncho. at 24 h” value in test [1] was “No”. The affinity at hM3 muscarinic receptor corresponds to a Ki of 100 pM.
With `C[C@@H](Cc1cccc(CNC(=O)Cc2ccc(N(C)C(=O)CCN3CCC(OC(=O)Nc4ccccc4-c4ccccc4)CC3)cc2)c1)NC[C@H](O)c1ccc(O)c2[nH]c(=O)ccc12` [Compound I-69], at hβ2 adrenergic receptor, the EC50 turned out to be 1000 pM. In addition, the inhibition in vivo at 0.1 mg in test [1] is more than 30%. In addition, the Ki at hM3 muscarinic receptor turned out to be 100 pM.
In turn, `C[C@@H](Cc1cccc(NC(=O)c2cccc(N(C)C(=O)CCN3CCC(OC(=O)Nc4ccccc4-c4ccccc4)CC3)c2)c1)NC[C@H](O)c1ccc(O)c2[nH]c(=O)ccc12` [Compound I-39] had an EC50 at hβ2 adrenergic receptor of 1000 pM. The “Broncho. at 24 h” value in test [1] is on record as “No”. For the same compound, affinity at hM3 muscarinic receptor was put at a Ki of 200 pM.
For `Cc1cc(CNC[C@H](O)c2ccc(O)c3[nH]c(=O)ccc23)ccc1NC(=O)c1cccc(N(C)C(=O)CCN2CCC(OC(=O)Nc3ccccc3-c3ccccc3)CC2)c1` [Compound I-27] the same measures were 1000 pM, “No” and 100 pM.
Consider `C[C@@H](Cc1cccc(CCNC(=O)c2ccc(N(C)C(=O)CCN3CCC(OC(=O)Nc4ccccc4-c4ccccc4)CC3)cc2)c1)NC[C@H](O)c1ccc(O)c2[nH]c(=O)ccc12` [Compound I-56], for which, on hβ2 adrenergic receptor, the midpoint of the response, the EC50, lay at 1000 pM. Also, in test [1], the “Broncho. at 24 h” value is given as “No”. The compound also had a Ki on hM3 muscarinic receptor (setting [2]) of 200 pM.
In turn, `CC(Cc1ccc(CCNC(=O)Cc2ccc(N(C)C(=O)CCN3CCC(OC(=O)Nc4ccccc4-c4ccccc4)CC3)cc2)cc1)NC[C@H](O)c1ccc(O)c2[nH]c(=O)ccc12` (stereo partly drawn) [Compound I-88] had an EC50 at hβ2 adrenergic receptor of 1000 pM. In addition, the inhibition in vivo at 0.1 mg in test [1] is more than 30%. The compound also registered a Ki on hM3 muscarinic receptor of 100 pM.
For `CC(Cc1cccc(CC(=O)NCCCN(C)C(=O)CCN2CCC(OC(=O)Nc3ccccc3-c3ccccc3)CC2)c1)NC[C@H](O)c1ccc(O)c2[nH]c(=O)ccc12` (stereo partly drawn) [Compound I-11] the same measures were 1000 pM, more than 30% and 100 pM.
At hβ2 adrenergic receptor, `CC(Cc1cccc(CCC(=O)NCc2ccc(N(C)C(=O)CCN3CCC(OC(=O)Nc4ccccc4-c4ccccc4)CC3)cc2)c1)NC[C@H](O)c1ccc(O)c2[nH]c(=O)ccc12` (stereo partly drawn) [Compound I-91] came in with an EC50 of 1000 pM. Also, the inhibition in vivo at 0.1 mg in test [1] was more than 30%. This compound displayed a Ki at hM3 muscarinic receptor of 200 pM.
Turning to `C[C@H](Cc1cccc(CC(=O)NCCCCN(C)C(=O)CCN2CCC(OC(=O)Nc3ccccc3-c3ccccc3)CC2)c1)NC[C@H](O)c1ccc(O)c2[nH]c(=O)ccc12` [Compound I-23], the EC50 on hβ2 adrenergic receptor was 1000 pM. For the same compound, the inhibition in vivo at 0.1 mg in test [1] is more than 30%. The compound also displayed a Ki at hM3 muscarinic receptor of 100 pM.
For `CC(Cc1ccc(CC(=O)Nc2cccc(N(C)C(=O)CCN3CCC(OC(=O)Nc4ccccc4-c4ccccc4)CC3)c2)cc1)NC[C@H](O)c1ccc(O)c2[nH]c(=O)ccc12` (stereo partly drawn) [Compound I-53], on hβ2 adrenergic receptor, the EC50 came to 1000 pM. The “Broncho. at 24 h” value in test [1] was “No”. This compound came in with a Ki at hM3 muscarinic receptor of 100 pM.

In general, EC50 refers to the concentration that produces a half-maximal response. A higher EC50 goes with lower potency in that assay. What is called Ki is the dissociation constant of the complex between target and ligand, obtained from inhibition or displacement. Read a low Ki as tighter binding.

Source of the values: patent US8551978B2 (Theravance, Inc., priority 2009, dated 2013).
